{
  "source": "patent US20100310685A1",
  "about": "“PUPICIDAL AND LARVICIDAL COMPOSITION” (priority 2008, published 2010)",
  "system": "pupae of Nematocera Diptera (for example mosquitoes)",
  "assay": "specific research on pupicidal action",
  "details": "in vivo",
  "data": [
    {"compound": "CCCCCCCCCCCCCCCCO", "note": "[cetyl alcohol, 1-hexadecanol]", "values": [
      {"measurement": "pupicidal action (kills pupae)", "value": "excellent pupicide"}
    ]}
  ]
}
